Data: EP1266655A1, “ENTERIC GRANULAR PREPARATIONS OF HARDLY WATER SOLUBLE DRUGS CHARACTERIZED BY CONTAINING WATER-REPELLENT COMPONENT” (SHIONOGI & CO., LTD., priority 2000, dated 2001)
In brackets after ≈: the same amount, converted by molar mass.

Assay: Solubility of Compound A in several test solutions
Format: physicochemical
Source text: Compound A was used as an insoluble active ingredient in the following references and examples.

solubility at 3 h (Water, 3 hours, final pH 5.81): 5.56 µg/mL (≈ 12.6 µM) | solubility at 6 h (Water, 6 hours, final pH 5.81): 5.93 µg/mL (≈ 13.4 µM) | solubility at 3 h (jp-2 solution, JP-2 Sol., 3 hours, final pH 6.84): 81.1 µg/mL (≈ 184 µM) | solubility at 6 h (jp-2 solution, JP-2 Sol., 6 hours, final pH 6.84): 81.7 µg/mL (≈ 185 µM) | solubility at 3 h (ph 6.0 test solution, pH6.0, 3 hours, final pH 6.08): 15.2 µg/mL (≈ 34.4 µM) | solubility at 6 h (ph 6.0 test solution, pH6.0, 6 hours, final pH 6.08): 15.6 µg/mL (≈ 35.3 µM) | solubility at 3 h (ph 7.8 test solution, pH7.8, 3 hours, final pH 7.6): 488 µg/mL (≈ 1100 µM) | solubility at 6 h (ph 7.8 test solution, pH7.8, 6 hours, final pH 7.6): 489 µg/mL (≈ 1110 µM) | solubility at 3 h (ph 8.0 test solution, pH8.0, 3 hours, final pH 7.76): 653 µg/mL (≈ 1480 µM) | solubility at 6 h (ph 8.0 test solution, pH8.0, 6 hours, final pH 7.76): 676 µg/mL (≈ 1530 µM) | solubility at 3 h (ph 8.5 test solution, pH8.5, 3 hours, final pH 8.29): 6200 µg/mL (≈ 14000 µM) | solubility at 6 h (ph 8.5 test solution, pH8.5, 6 hours, final pH 8.29): 6220 µg/mL (≈ 14100 µM)
Compound: CC1(C)[C@H]2C[C@H](C/C=C\CCCC(=O)O)[C@@H](NC(=O)c3csc4ccc(O)cc34)[C@@H]1C2 [Compound A, (Z)-7-[(1R,2R,3S,5S)-2-(5-hydroxybenzo[b]thiophen-3-ylcarbonylamino)-10-norpinan-3-yl]-5-heptenoic acid]
